Test results reported in patent US12458605B2, “Lipid nanoparticle” (National University Corporation Hokkaido University, priority 2020, dated 2025).

Legend:
[1] = Storage stability of FlucmRNA-loaded LNP at −80, 5, 25 and 40° C.; format: physicochemical; conditions: for period for which quality remained good, −80° C.: maximum storage period 1 week; for period for which quality remained good, 5° C. / period for which quality remained good, 25° C. / period for which quality remained good, 40° C. (weeks) / period for which quality remained good, 40° C. (days): maximum storage period 5 weeks
Protocol: Lipid nanoparticles were allowed to stand at each temperature of −80° C., 5° C., 25° C., and 40° C., and after keeping for each period of time, average particle size, PDI, and nucleic acid encapsulation rate were measured. Lipid nanoparticles which satisfy following all three conditions were defined that the quality was remained well: the average particle size is maintained within +/−20 nm based on the date of LNP preparation; PDI remains high uniformity with a value of 0.2 or less; and the nucleic acid encapsulation rate is also maintained at 80% or more. As a result of measuring average particle size, PDI, and nucleic acid encapsulation rate after each FlucmRNA-loaded lipid nanoparticle was allowed to stand at −80° C., 5° C., 25° C., and 40° C. respectively and kept for each period of time, periods of time defined as the quality of the lipid nanoparticles was remained well are shown in Tables 13 and 14. The lipid nanoparticles which remain in good quality with standing at 5° C. for one week or more can be evaluated as having excellent stability.

spleen = assay: In vivo Fluc activity of FlucmRNA-loaded LNP by in vivo imaging, spleen; conditions: Balb/c mice, 6 hours; for Fluc activity in the spleen, compared with CL4F6: 0.1 mg mRNA/kg, versus LNP comprising CL4F6 (Tables 5 and 6); for Fluc Activity in spleen: FlucmRNA-loaded LNP i.v. 0.1 mg mRNA/kg
Protocol: (§1) Then, each prepared FlucmRNA-loaded lipid nanoparticles were administered to Balb/c mice (Charles River Laboratories Japan, Inc., 7 weeks old, female) and in vivo gene expression activity was examined. Specifically, each FlucmRNA-loaded lipid nanoparticles were intravenously administered to Balb/c mice at 0.1 mg mRNA/kg, and Fluc activities in the liver and spleen at 6 hours later were measured. Fluc activity was measured by in vivo imaging system (Perkin Elmer, IVIS200) after administration of VivoGlo Luciferin, In Vivo Grade (Promega, P1041) dissolved with PBS to 15 mg/mL, via tail vein at a dose of 1.5 mg per mouse. The unit of Fluc activity is the emission intensity per unit area (Avg Radiance [p/s/cm2/sr]) at the maximum emission wavelength of about 560 nm. The results of measurement of the Fluc activity (Avg Radiance [p/s/cm2/sr]) in the liver and spleen of mice administered each FlucmRNA-loaded lipid nanoparticles are shown in Tables 5-7.

[2] = Average particle size (ζ-Average) and PDI by dynamic light scattering (Zetasizer Nano ZSP); format: physicochemical
Protocol: The average particle size (ζ-Average) and PDI in PBS(−) of lipid nanoparticles were measured using “Zetasizer Nano ZSP”, an analyzer utilizing dynamic light scattering (manufactured by Malvern).
Measurement of average particle size and PDI of the lipid nanoparticles were carried out with the same method as the measurement of average particle size of mRNA-LNP.
The average particle size (ζ-Average) and PDI in PBS (−) of lipid nanoparticles were measured using “Zetasizer Nano ZSP”, an analyzer utilizing dynamic light scattering (manufactured by Malvern).

[3] = siRNA/mRNA encapsulation rate by Ribogreen reagent (section IV); format: physicochemical; conditions: for % siRNA encapsulation: F7siRNA-loaded LNP, 50:10:38.5:1.5, N/P ratio 6; for % mRNA encapsulation: FlucmRNA-loaded LNP, 50:10:38.5:1.5
Protocol: The encapsulation rates of siRNA and mRNA of lipid nanoparticles were measured with Ribogreen reagent. A solution diluted with TE buffer solution was arranged so that lipid nanoparticle concentration as nucleic acid concentration to be 8 μg/mL, as a solution for measuring nanoparticle surface nucleic acid concentration. In addition, a solution for measuring total nucleic acid concentration was arranged so that lipid nanoparticle concentration as nucleic acid concentration to be 1.2 μg/mL, which is 1% (w/w) concentration of X-triton100, by adding X-triton100. For 100 μL of each solution, 100 μL of Ribogreen (registered trademark) reagent (Quant-iT™ RiboGreen™ RNA Reagent, manufactured by Thermofisher Scientific) was mixed well in the wells of 96-well microplate (black, made of polystyrene, flat bottom, manufactured by Corning), and the fluorescence intensity at an excitation wavelength of 485 nm and a measurement wavelength of 528 nm was measured with a microplate reader. Nucleic acid concentration was calculated by calibration curve created by measuring the fluorescence intensity of nucleic acid solution containing 1% X-triton100 (nucleic acid concentration: 0-2.5 μg/mL) as same as aforementioned. Nucleic acid encapsulation rate of each lipid nanoparticle was calculated by the following formula: Encapsulation rate %=(nucleic acid concentration in solution for measuring total nucleic acid concentration (μg/mL)−nucleic acid concentration in solution for measuring nanoparticle surface nucleic acid concentration (μg/mL))/nucleic acid concentration in solution for measuring total nucleic acid concentration (μg/mL)×100. <Results>
The encapsulation rate of mRNA of lipid nanoparticles was measured using Ribogreen (manufactured by life technologies).

F7 = assay: In vivo F7 knockdown, plasma F7 enzyme activity (BIOPHEN FVII), Balb/c mice; conditions: for F7 enzyme activity (%): untreated mice as 100%; for knockdown activity, compared with MC3: F7siRNA-loaded LNP, versus LNP comprising MC3
Protocol: Then, each prepared F7siRNA-loaded lipid nanoparticles were administered to Balb/c mice (Charles River Laboratories Japan, Inc., 5 weeks old, female) and in vivo F7 knockdown activity was examined. Specifically, BALB/c mice were intravenously administered F7siRNA-loaded lipid nanoparticles comprising the lipids described in Table 9 at 0.025 mg siRNA/kg and F7siRNA-loaded lipid nanoparticles comprising the lipids described in Tables 10 and 11 at 0.025 mg siRNA/kg, and the plasma F7 enzyme activity at 24 hours later was measured using BIOPHEN FVII (Biophen, A221304). Relative plasma F7 enzyme activity (%) of mice administered each F7siRNA-loaded lipid nanoparticles was calculated using plasma F7 enzyme activity of untreated mice as 100%. Furthermore, the ratio was calculated using the relative plasma F7 enzyme activity (%) of mice administered MC3-comprising F7siRNA-loaded lipid nanoparticles as 1. The results of measurement of CL4F6 derivative nanoparticles are shown in Tables 9 and 10, and results of measurement of CL15F6 derivative nanoparticles in Table 11.

liver = assay: In vivo Fluc activity of FlucmRNA-loaded LNP by in vivo imaging, liver; conditions: Balb/c mice, 6 hours; for Fluc Activity in liver: FlucmRNA-loaded LNP i.v. 0.1 mg mRNA/kg
Protocol: as §1

[4] = F7siRNA-loaded LNP, 50:10:38.5:1.5, N/P ratio 6
[5] = FlucmRNA-loaded LNP, 50:10:38.5:1.5
[6] = FlucmRNA-loaded LNP, lipid:DSPC:cholesterol:DMG-PEG2K 50:10:38.5:1.5
[7] = i.v. 0.025 mg siRNA/kg, plasma at 24 hours

Compound	period for which quality remained good, −80° C. [1] [week]	period for which quality remained good, 5° C. [1] [weeks]	period for which quality remained good, 25° C. [1] [weeks]	period for which quality remained good, 40° C. (weeks) [1]	PDI [2, 4]	ζ-Average (nm) [2, 4] [nm]	PDI [2, 5]	ζ-Average (nm) [2, 6] [nm]	% siRNA encapsulation [3] [%]	% mRNA encapsulation [3] [%]	period for which quality remained good, 40° C. (days) [1] [day days]	Fluc activity in the spleen, compared with CL4F6 (spleen)	Fluc Activity in spleen (spleen)	F7 enzyme activity (%) (F7; [7])	Fluc activity in the liver, compared with CL4F6 (liver; 0.1 mg mRNA/kg, versus LNP comprising CL4F6 (Tables 5 and 6))	Fluc Activity in liver (liver)	knockdown activity, compared with MC3 (F7)	F7 enzyme activity (Ratio using MC3 as 1) (F7; i.v. 0.025 mg siRNA/kg, plasma at 24 hours, relative plasma F7 activity of MC3 LNP as 1)
CCCCCCC(CCCCCC)C(=O)OCCCCCCC(O)(CCCCCCOC(=O)C(CCCCCC)CCCCCC)CCCCN(CCC)CCC [CL4F 8-6]	1	5	5	1 week weeks	0.010	99.72	0.022	88.78	100.0	99.4		higher Fluc activity	9.58E+06 Avg Radiance [p/s/cm2/sr]	3	higher Fluc activity	1.80E+08 Avg Radiance [p/s/cm2/sr]		
CCCCCCCC(CCC)C(=O)OCCCCCCC(O)(CCCCCCOC(=O)C(CCC)CCCCCCC)CCCCN(CCC)CCC (stereo not shown) [CL4F 9-3]	1	5	5		0.022	114.40	0.030	102.80	99.9	99.6	0	higher Fluc activity	8.17E+06 Avg Radiance [p/s/cm2/sr]	11.7		2.96E+07 Avg Radiance [p/s/cm2/sr]		
CCCCCCCCC(CC)C(=O)OCCCCCCC(O)(CCCCCCOC(=O)C(CC)CCCCCCCC)CCCCN(CCC)CCC (stereo not shown) [CL4F 10-2]	0	5	1		0.024	115.60	0.068	93.60	99.6	98.6	0	higher Fluc activity	6.40E+06 Avg Radiance [p/s/cm2/sr]	11.4		3.02E+07 Avg Radiance [p/s/cm2/sr]		
CCCCCCCCC(CCCC)C(=O)OCCCCCCC(O)(CCCCCCOC(=O)C(CCCC)CCCCCCCC)CCCCN(CCC)CCC (stereo not shown) [CL4F 10-4]	1	5	5		0.021	95.37	0.041	84.92	100.1	99.8	0	higher Fluc activity	6.70E+06 Avg Radiance [p/s/cm2/sr]	1.7		1.20E+08 Avg Radiance [p/s/cm2/sr]	higher knockdown activity	

Continued, in another order:

period for which quality remained good, −80° C. [1] [week]	period for which quality remained good, 5° C. [1] [weeks]	period for which quality remained good, 25° C. [1] [weeks]	period for which quality remained good, 40° C. (weeks) [1]	PDI [2, 4]	ζ-Average (nm) [2, 4] [nm]	PDI [2, 5]	ζ-Average (nm) [2, 6] [nm]	% siRNA encapsulation [3] [%]	% mRNA encapsulation [3] [%]	period for which quality remained good, 40° C. (days) [1] [day days]	Compound	Fluc activity in the spleen, compared with CL4F6 (spleen)	Fluc Activity in spleen (spleen)	F7 enzyme activity (%) (F7; [7])	Fluc activity in the liver, compared with CL4F6 (liver; 0.1 mg mRNA/kg, versus LNP comprising CL4F6 (Tables 5 and 6))	Fluc Activity in liver (liver)	knockdown activity, compared with MC3 (F7)	F7 enzyme activity (Ratio using MC3 as 1) (F7; i.v. 0.025 mg siRNA/kg, plasma at 24 hours, relative plasma F7 activity of MC3 LNP as 1)
1	5	5	5 weeks	0.032	99.72	0.048	89.41	99.9	99.0		CCCCCCCC(CCCCC)C(=O)OCCCCCCC(O)(CCCCCCOC(=O)C(CCCCC)CCCCCCC)CCCCN(CCC)CCC (stereo not shown) [CL4F 9-5]	higher Fluc activity	9.53E+06 Avg Radiance [p/s/cm2/sr]			6.84E+07 Avg Radiance [p/s/cm2/sr]	higher knockdown activity	0.43
1	5	5	5 weeks	0.013	89.34	0.039	79.68	100.1	99.8		CCCCCCCCC(CCCCCCC)C(=O)OCCCCCCC(O)(CCCCCCOC(=O)C(CCCCCCC)CCCCCCCC)CCCCN(CCC)CCC (stereo not shown) [CL4F 10-7]		2.03E+06 Avg Radiance [p/s/cm2/sr]	4.1		1.19E+08 Avg Radiance [p/s/cm2/sr]		
1	5	5	5 weeks	0.007	91.44	0.021	81.99	99.9	99.8		CCCCCCCCC(CCCCCCCC)C(=O)OCCCCCCC(O)(CCCCCCOC(=O)C(CCCCCCCC)CCCCCCCC)CCCCN(CCC)CCC [CL4F 10-8]		8.04E+05 Avg Radiance [p/s/cm2/sr]	8.1		5.14E+07 Avg Radiance [p/s/cm2/sr]		
1	5	5	1 week weeks	0.012	89.72	0.019	81.81	100.1	99.6		CCCCCCCCCC(CCCCC)C(=O)OCCCCCCC(O)(CCCCCCOC(=O)C(CCCCC)CCCCCCCCC)CCCCN(CCC)CCC (stereo not shown) [CL4F 11-5]		1.03E+06 Avg Radiance [p/s/cm2/sr]	4.3		4.50E+07 Avg Radiance [p/s/cm2/sr]		
